Test results from patent US9879250B2, “Protein-stabilizing agent and protein-stabilizing method” (NOF CORPORATION, priority 2014, dated 2018).

Assay: Dissolution in phosphate buffer when preparing the protein stabilization solution
Type: physicochemical
Settings: phosphate buffer (pH 7.4)
Method: Two protein stabilizer solutions were prepared by dissolving the compound produced in Synthesis Example 1 in a phosphate buffer (pH 7.4) in such a manner that the final concentrations were controlled at 1.000% by mass (Example 1-1-1) and 0.100% by mass (Example 1-1-2) shown in Table 1 respectively.
Preparation of a protein stabilization solution was tested in the same manner as Example 1-1 except for using the compound produced in Comparative Synthesis Example 1. However, the compound produced in Comparative Synthesis Example 1 was not dissolved in the phosphate buffer, so that the protein stabilization effect could not evaluated.

CCCCCCCCCCCCCCCCCCCCSCC(C)C(=O)OCCOP(=O)([O-])OCC[N+](C)(C)C (stereo not shown) [Comparative Synthesis Example 1, 2-[3-(eicosasulfanyl)-2-methylpropionyloxy]ethyl-2-(trimethylammonio)ethyl phosphate]
Dissolution in the phosphate buffer: not dissolved
